Measured values taken from PubChem BioAssay AID248 (DTP/NCI, 2004).
Where “and” joins values, the source holds several entries; their conditions need not be identical. Identical values can stand only once. Inconclusive results and toxic doses are left out. Cut-off read from the data, not from the text of the source: active = T/C of 150% or more; inactive = T/C below 125%.

System: L1210 leukemia ip in BDF1 mice, survival T/C
Experiment: NCI In Vivo Anticancer Drug Screen. Data for tumor model L1210 Leukemia (intraperitoneal) in B6D2F1 (BDF1) mice
Settings: endpoint: mean survival time, higher = longer survival
Method in brief: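 Antitumor effect is assessed in tumor-bearing animals. Survival in the compound arm is compared with a vehicle-dosed control arm and expressed as their quotient.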

[1] = dose: 100.0 mg/kg/injection, schedule: Q01DX001 (ip), vehicle: carboxymethylcellulose (CMC)
[2] = dose: 200.0 mg/kg/injection, schedule: Q01DX001 (ip), vehicle: carboxymethylcellulose (CMC)
[3] = dose: 100.0 mg/kg/injection, schedule: Q04DX002 (ip), vehicle: Klucel (hydroxypropylcellulose) (HPC)
[4] = dose: 400.0 mg/kg/injection, schedule: Q01DX001 (ip), vehicle: carboxymethylcellulose (CMC)
[5] = dose: 100.0 mg/kg/injection, schedule: Q01DX009 (ip), vehicle: Klucel (hydroxypropylcellulose) (HPC)
[6] = dose: 200.0 mg/kg/injection, schedule: Q01DX009 (ip), vehicle: Klucel (hydroxypropylcellulose) (HPC)
[7] = dose: 400.0 mg/kg/injection, schedule: Q01DX009 (ip), vehicle: Klucel (hydroxypropylcellulose) (HPC)

Measured: T/C

C[C@H]1CCC/C=C/[C@@H]2C[C@H](O)C[C@H]2[C@H](O)/C=C/C(=O)O1
inactive: [1] 105 % of control | dose: 100.0 mg/kg/injection, schedule: Q01DX001 (ip), vehicle: other 92 % of control | dose: 100.0 mg/kg/injection, schedule: Q01DX015 (ip), vehicle: water 96 % of control | [2] 103 % of control | dose: 200.0 mg/kg/injection, schedule: Q01DX001 (ip), vehicle: other 95 % of control | dose: 200.0 mg/kg/injection, schedule: Q01DX015 (ip), vehicle: water 103 % of control | dose: 400.0 mg/kg/injection, schedule: Q01DX001 (ip), vehicle: other 93 % of control

CCN(CC)CC(OC)C(COC)OC(=O)C(c1ccccc1)c1ccccc1 (stereo not given)
inactive: dose: 13.0 mg/kg/injection, schedule: Q01DX Z (ip), vehicle: saline 105 % of control | dose: 20.0 mg/kg/injection, schedule: Q01DX Z (ip), vehicle: saline 98 % of control | dose: 30.0 mg/kg/injection, schedule: Q01DX Z (ip), vehicle: saline 102 % of control

CCOC(=O)C1C(C)NC(=S)NC1c1ccccc1 (stereo not given)
inactive: [3] 90 % of control | dose: 200.0 mg/kg/injection, schedule: Q04DX002 (ip), vehicle: Klucel (hydroxypropylcellulose) (HPC) 93 % of control | dose: 400.0 mg/kg/injection, schedule: Q04DX002 (ip), vehicle: Klucel (hydroxypropylcellulose) (HPC) 93 % of control

CCOC(=O)/C(C#N)=C\c1cc(O)c(O)c(OC)c1
inactive: dose: 50.0 mg/kg/injection, schedule: Q01DX001 (ip), vehicle: carboxymethylcellulose (CMC) 100 % of control | [1] 92 % of control | [2] 97 % of control | [4] 103 % of control

CCOC(=O)C1CC2C=CC1C2 (stereo not given)
inactive: [5] 106 % of control | dose: 100.0 mg/kg/injection, schedule: Q04DX003 (ip), vehicle: Klucel (hydroxypropylcellulose) (HPC) 111 % of control | [6] 101 % of control | dose: 200.0 mg/kg/injection, schedule: Q04DX003 (ip), vehicle: Klucel (hydroxypropylcellulose) (HPC) 100 % of control | [7] 103 % of control | dose: 400.0 mg/kg/injection, schedule: Q04DX003 (ip), vehicle: Klucel (hydroxypropylcellulose) (HPC) 105 % of control

CCCNC(=O)c1ccc(NC(=O)Nc2ccc(C3=NCCN3)cc2)cc1NC(=O)Nc1ccc(C2=NCCN2)cc1
inactive: dose: 25.0 mg/kg/injection, schedule: Q01DX Z (ip), vehicle: carboxymethylcellulose (CMC) 113 % of control | dose: 50.0 mg/kg/injection, schedule: Q01DX Z (ip), vehicle: carboxymethylcellulose (CMC) 117 % of control | dose: 100.0 mg/kg/injection, schedule: Q01DX Z (ip), vehicle: carboxymethylcellulose (CMC) 108 % of control and 113 % of control

Nc1nc(N)c(CCc2ccccc2)c(=O)[nH]1
inactive: dose: 100.0 mg/kg/injection, schedule: Q04DX003 (ip), vehicle: saline with Tween-80 100 % of control | dose: 200.0 mg/kg/injection, schedule: Q04DX003 (ip), vehicle: saline with Tween-80 94 % of control | dose: 400.0 mg/kg/injection, schedule: Q04DX003 (ip), vehicle: saline with Tween-80 94 % of control

Cc1ccc(C(=O)OCC2OC(n3cnc4c(=S)nc(N)[nH]c43)C(OC(=O)c3ccc(C)cc3)C2OC(=O)c2ccc(C)cc2)cc1 (stereo not given)
inactive: dose: 100.0 mg/kg/injection, schedule: Q01DX001 (ip), vehicle: saline 95 % of control | dose: 100.0 mg/kg/injection, schedule: Q01DX009 (ip), vehicle: saline 106 % of control | dose: 200.0 mg/kg/injection, schedule: Q01DX001 (ip), vehicle: saline 101 % of control | dose: 200.0 mg/kg/injection, schedule: Q01DX009 (ip), vehicle: saline 112 % of control | [4] 111 % of control | dose: 400.0 mg/kg/injection, schedule: Q01DX001 (ip), vehicle: saline 106 % of control | dose: 400.0 mg/kg/injection, schedule: Q01DX009 (ip), vehicle: saline 116 % of control | dose: 600.0 mg/kg/injection, schedule: Q01DX001 (ip), vehicle: carboxymethylcellulose (CMC) 105 % of control | dose: 800.0 mg/kg/injection, schedule: Q01DX001 (ip), vehicle: carboxymethylcellulose (CMC) 119 % of control | dose: 1000.0 mg/kg/injection, schedule: Q01DX001 (ip), vehicle: carboxymethylcellulose (CMC) 116 % of control
active: dose: 800.0 mg/kg/injection, schedule: Q01DX009 (ip), vehicle: saline 172 % of control

COc1ccc(Cl)cc1/C=C/C=N/NC(=O)c1cccc(C)c1O
inactive: dose: 75.0 mg/kg/injection, schedule: Q01DX001 (ip), vehicle: carboxymethylcellulose (CMC) 86 % of control | dose: 150.0 mg/kg/injection, schedule: Q01DX001 (ip), vehicle: carboxymethylcellulose (CMC) 89 % of control | dose: 300.0 mg/kg/injection, schedule: Q01DX001 (ip), vehicle: carboxymethylcellulose (CMC) 86 % of control

COc1ccccc1/C=C(\C#N)c1cccc2ccccc12
inactive: dose: 25.0 mg/kg/injection, schedule: Q04DX002 (ip), vehicle: Klucel (hydroxypropylcellulose) (HPC) 118 % of control | dose: 50.0 mg/kg/injection, schedule: Q04DX002 (ip), vehicle: Klucel (hydroxypropylcellulose) (HPC) 93 % of control | [5] 94 % of control | [3] 107 % of control | [6] 89 % of control | [7] 90 % of control

C/C(=C/c1ccccc1)C(=O)NN
inactive: dose: 80.0 mg/kg/injection, schedule: Q01DX001 (ip), vehicle: saline with Tween-80 98 % of control | dose: 160.0 mg/kg/injection, schedule: Q01DX001 (ip), vehicle: saline with Tween-80 106 % of control

CC(O)CN1CCOCC1 (stereo not given)
inactive: dose: 100.0 mg/kg/injection, schedule: Q04DX003 (ip), vehicle: saline 100 % of control | dose: 200.0 mg/kg/injection, schedule: Q04DX003 (ip), vehicle: saline 97 % of control | dose: 400.0 mg/kg/injection, schedule: Q04DX003 (ip), vehicle: saline 107 % of control

COc1ccc(C(O)(CNCc2ccccc2)c2ccccc2)cc1 (stereo not given)
inactive: dose: 100.0 mg/kg/injection, schedule: Q01DX001 (ip), vehicle: saline with Tween-80 97 % of control
